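Where inhibition never reached the appropriate level, the endpoint shown equals the highest concentration tested. Otherwise, values were interpolated linearly from a five-concentration, 48-hour dose response in 96-well plates. GI50 = concentration required for 50% inhibition of growth.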 Calls of active or inactive are those of the source. Rule as the data show it: active = GI50 up to about 1.1 µM and inactive = higher.
Columns and labels:
Assay in all cases: DTP human tumour cell line panel, 48 h
NCI-H522 = system: NCI-H522
A498 = system: A498
A549 = system: A549
SK-MEL-28 = system: SK-MEL-28
SF-539 = system: SF-539
SK-MEL-5 = system: SK-MEL-5
EKVX = system: EKVX
HCC 2998 = system: HCC 2998
SR = system: SR
SW-620 = system: SW-620
SF-295 = system: SF-295
OVCAR-4 = system: OVCAR-4
OVCAR-5 = system: OVCAR-5
OVCAR-3 = system: OVCAR-3
SF-268 = system: SF-268
UO-31 = system: UO-31
NCI/ADR-RES = system: NCI/ADR-RES
T47D = system: T47D
MDA-MB-231 = system: MDA-MB-231

Measured: GI50

CC(C)(CN1CCCCC1)C(=O)/C=C/c1ccc(Cl)c(Cl)c1
inactive: NCI-H522 1.21 µM | A498 1.67 µM | A549 1.98 µM | SK-MEL-28 1.86 µM | SF-539 2.07 µM | SK-MEL-5 2.07 µM | EKVX 1.76 µM | HCC 2998 1.74 µM | SR 1.49 µM | SW-620 1.37 µM | SF-295 2.45 µM | OVCAR-4 1.51 µM | OVCAR-5 1.71 µM | OVCAR-3 1.59 µM | SF-268 1.8 µM | UO-31 1.63 µM

CC1(C)CS(=O)(=O)CC(C)(C)C(=N/N)/C1=N\N
inactive: NCI-H522 > 100 µM | A498 > 100 µM | A549 > 100 µM | SK-MEL-28 > 100 µM | SF-539 > 100 µM | NCI/ADR-RES > 100 µM | SK-MEL-5 > 100 µM | EKVX > 100 µM | T47D > 100 µM | HCC 2998 > 100 µM | SR > 100 µM | SW-620 > 100 µM | SF-295 > 100 µM | OVCAR-4 > 100 µM | OVCAR-5 > 100 µM | OVCAR-3 > 100 µM | SF-268 > 100 µM

CCc1cccc(C)c1N1C(=O)C(=O)C(c2nc3ccccc3o2)C(=O)C1=O
inactive: NCI-H522 > 100 µM | A498 > 100 µM | A549 > 100 µM | SK-MEL-28 > 100 µM | SF-539 > 100 µM | SK-MEL-5 > 100 µM | EKVX > 100 µM | HCC 2998 > 100 µM | SR > 100 µM | SW-620 > 100 µM | SF-295 > 100 µM | OVCAR-4 > 100 µM | OVCAR-5 > 100 µM | OVCAR-3 > 100 µM | SF-268 > 100 µM | UO-31 > 100 µM

Nc1ccc(C(=O)N/C(=C\c2cccc([N+](=O)[O-])c2)c2nc3ccccc3[nH]2)cc1
inactive: NCI-H522 36.6 µM | A498 61.8 µM | A549 51.3 µM | SK-MEL-28 > 92.9 µM | SF-539 22.8 µM | SK-MEL-5 76.4 µM | EKVX > 88.1 µM | HCC 2998 > 100 µM | SR > 100 µM | SW-620 > 100 µM | SF-295 28.4 µM | OVCAR-4 25.1 µM | OVCAR-5 > 100 µM | OVCAR-3 50.2 µM | SF-268 21.8 µM | UO-31 20.6 µM

COc1ccc(/C=C2/S/C(=N\c3ccccc3)N(NC(=O)Cc3ccccc3)C2=O)c(OC)c1
inactive: A498 > 100 µM | A549 > 100 µM | SK-MEL-28 > 100 µM | SF-539 > 100 µM | NCI/ADR-RES > 100 µM | SK-MEL-5 69.5 µM | EKVX > 100 µM | T47D 43.9 µM | HCC 2998 82.6 µM | SW-620 > 100 µM | SF-295 > 100 µM | OVCAR-4 > 100 µM | MDA-MB-231 69 µM | OVCAR-5 > 100 µM | OVCAR-3 > 100 µM | SF-268 > 100 µM | UO-31 98.9 µM

CCCN/C(N)=N/C#N
inactive: NCI-H522 > 100 µM | A498 67.6 µM | A549 > 100 µM | SK-MEL-28 > 100 µM | SF-539 > 100 µM | SK-MEL-5 > 100 µM | EKVX > 100 µM | HCC 2998 > 100 µM | SR 25.1 µM | SW-620 13.6 µM | SF-295 > 100 µM | OVCAR-4 37.1 µM | OVCAR-5 > 100 µM | OVCAR-3 > 100 µM | SF-268 44.2 µM | UO-31 > 100 µM

COC(=O)C1C2C=CC(C2)N1S(=O)(=O)c1ccccc1 (centres undefined)
inactive: NCI-H522 > 100 µM | A498 > 100 µM | A549 > 100 µM | SK-MEL-28 > 100 µM | SF-539 > 100 µM | NCI/ADR-RES > 100 µM | SK-MEL-5 > 100 µM | T47D > 100 µM | SW-620 > 100 µM | SF-295 > 100 µM | OVCAR-4 > 100 µM | MDA-MB-231 > 100 µM | OVCAR-5 > 100 µM | OVCAR-3 > 100 µM | SF-268 > 100 µM | UO-31 > 100 µM
